# Entries after “also recorded” stand apart in the source; their conditions may differ. Where two headings read alike, the source gives them in different places.
# Key:
# [1] = tests of the capacity to promote the formation of disulfide bridges; format: biochemical
# Procedure: The tests were carried out as described previously (see above). The substance tested and the amounts tested are stated in each case.
# human hair = assay: oxidation of reduced human hair by heterocyclic compound with metal ions, thiol groups by Ellman's reagent
# Procedure: To this end, for each measuring point the disulfide bridges of 5 mg hair were first reduced using ammonium thioglycolate/ammonium thiolactate (commercially available formulations for permanent waves) in order to open them. Subsequently, the reduction solution is removed and the hair was washed with water several times. Then, the hair was subjected to the different oxidation mixtures in order to again close the disulfide bridges. After filtrating these solutions, the amount of thiol groups was determined using the Ellman's reagent. Thereby, a statement on the speed and efficiency of the oxidation step and thus the renewed closure of the disulfide bridges can be made.
# In several experiments combinations of different metal additives in place of higher amounts of a single salt component are also used. The amounts in the mixture “artificial tap water” described below are based on the maximum values of the regulation for tap water of the FRG, wherein the following combination of metal ions was used: 0.2 mg/L iron ([…], 5 mg/L zinc (Zn^2+), 2 mg/L copper (Cu^2+) and some hardening components 100 mg/L calcium (Ca^2+) and 50 mg/L magnesium (Mg^2+).
# hair = assay: oxidation of hair reduced with ammonium thioglycolate Wave-Lotion, free thiol groups by Ellman's reagent (412 nm); conditions: air, room temperature, 3 days
# Procedure: The solution is removed and the hair is then washed 6 times with 400 μl H2O each time.
# For determination of the free thiol groups still remaining, after removing the reaction solution the hair is reacted with fEllman's reagent (5,5′-dithiobis(2-nitrobenzoic acid), DTNB). […] The hair samples are put in 200 μl each of 100 mM phosphate buffer, pH 8.0 and 1 mM EDTA, and 300 μl of a 1 mM DTNB solution in the same EDTA-containing buffer. The solution is analyzed after a few minutes in a UV-Vis spectrometer.
# EPO mimetic peptide = assay: cyclization of an EPO mimetic peptide that can only be cyclized with great difficulty; format: biochemical; conditions: 10 mg/ml caffeine
# Procedure: Some of the EPO mimetic peptides can only be cyclized with great difficulty. An example is the following peptide:
# The yield after approx. 21 h in solution was already >90%.
# BB57 = assay: cyclization (oxidation) of EPO mimetic peptide BB57 to BB57C in air in water, monitored by HPLC or Ellman's test; format: biochemical
# oxytocin, reduced (OxyR) = oxytocin, reduced (OxyR) (Homo sapiens, UniProt P01178); assay: cyclization of reduced oxytocin-derived peptide (OxyR) to oxytocin (Oxy) in air, HPLC; format: biochemical; conditions: GSSG optionally added with caffeine
# Procedure: The reaction mixture was analyzed by HPLC at regular intervals, in order to determine the contents of OxyR and the product oxytocin (Oxy).
# [2] = in combination with artificial tap water salt mixture
# [3] = single agent in water (10 mg/ml caffeine or 5 mg/ml GSSG)
compound,measurement,setting,value
Cn1ccc(=O)[nH]c1=O [1-methyl-uracil],capacity to promote the formation of disulfide bridges,[1],good activity
"Cc1cc(O)nc(C)n1 [2,4-dimethyl-6-hydroxypyrimidine]",capacity to promote the formation of disulfide bridges,[1],active
O=C(O)c1cc(O)nc(O)n1 [uracil-6-carboxylic acid],capacity to promote the formation of disulfide bridges,[1],active
O=C(O)c1cnccn1 [pyrazine-carboxylic acid],capacity to promote the formation of disulfide bridges,[1],do not have the capacity to promote the formation of disulfide bridges
"Oc1cc(O)ncn1 [4,6-dihydroxy-pyrimidine]",capacity to promote the formation of disulfide bridges,[1],active
Cn1c(=O)c2c(ncn2C)n(C)c1=O [caffeine],strength as catalysator on hair,human hair; comparison with alloxan,weaker compared to alloxan
same,duration of the reaction compared with alloxan,human hair; [2],takes longer
same,oxidation of reduced hair,human hair; [2],completely oxidize the hair
same,oxidation of the thiol groups of reduced hair,hair; combination 10 mg/ml caffeine and 5 mg/ml GSSG,almost quantitative oxidation of the thiol groups
same,oxidation of the thiol groups of reduced hair,hair; [3],partial oxidation of the thiol groups
same,time until cyclization successful,EPO mimetic peptide,≤ 24 h
same,reaction time until complete conversion,BB57,about 10 h
same,time of cyclisation,BB57,about an hour; also recorded: shortened
same,time until complete conversion,BB57,about 15 h
same,time until conversion is quantitative,BB57,ten
same,time until oxidation is completed,BB57,approx. 24 h
"O=c1ccc(=O)[nH][nH]1 [1,2-dihydro-3,6-pyridazinedione]",capacity to promote the formation of disulfide bridges,[1],active
Cc1cc(O)nc(C(C)C)n1 [2-isopropyl-6-methyl-4-pyrimidinol],capacity to promote the formation of disulfide bridges,[1],active
glutathione in oxidized form [GSSG],oxidation of the thiol groups of reduced hair,hair; [3],partial oxidation of the thiol groups
same,influence on rate or yield,"oxytocin, reduced (OxyR)",no influence on rate or yield
same,conversion of the peptide,BB57,only takes place slowly
"Cc1nc(O)cc(O)n1 [4,6-dihydroxy-2-methylpyrimidine]",capacity to promote the formation of disulfide bridges,[1],active
potassium hexacyanoferrate,effect of stable metal ion complex on cyclisation by alloxan,"BB57; alloxan plus potassium hexacyanoferrate(II) or (III) (30 μM), Ellman's reagent",accelerating effect
"O=C1NC(=O)C(=O)C(=O)N1 [alloxan, alloxan monohydrate]",reverse oxidation of the thiols in hair,"human hair; 0.1% alloxan solution with low amounts of iron(III) ions, after 10 minutes",almost complete reverse oxidation
same,advantage due to the addition of salt,"human hair; alloxan with iron(III) chloride or artificial tap water, control after 10 minutes",small advantage
same,oxidation of reduced hair,human hair; [2],completely oxidize the hair
same,capacity to promote the formation of disulfide bridges,[1],Active
same,effect of iron(III) ions on oxidation,BB57,accelerating effect
same,reaction time,BB57,less than an hour
same,time until almost completely cyclised,BB57,about 2 h
"Nc1cc(N2CCCCC2)nc(N)[n+]1[O-] [minoxidil, 6-(1-piperidinyl)-2,4-pyrimidinediamine-3-oxide]",time until oxidation is completed,"BB57; 0.7 mg BB57 and 0.3 mg substance in 1 ml distilled water, in the air, HPLC",approx. 29 h
O=C1NC(=O)C(=NO)C(=O)N1 [violuric acid],capacity to promote the formation of disulfide bridges,[1],Active
O=C1CC(=O)NC(=O)N1 [barbituric acid],capacity to promote the formation of disulfide bridges,[1],Active
"O=C(O)CN(CCN(CC(=O)O)CC(=O)O)CC(=O)O [EDTA, ethylenediaminetetraacetic acid]",effect of complexing agent on the strong effect of the iron ions,BB57; alloxan plus iron ions (3 μM) with two equivalents EDTA,slightly weakened
O=S(=O)([O-])[O-].[Fe+2] [iron(II) sulfate],accelerating effect on the cyclisation of BB57,BB57,no activity
Nc1nc(N)nc(N)n1 [melamine],capacity to promote the formation of disulfide bridges,[1],do not have the capacity to promote the formation of disulfide bridges
"Cc1cc(O)nc(O)n1 [2,4-dihydroxy-6-methylpyrimidine]",capacity to promote the formation of disulfide bridges,[1],active
"Nc1ccnc(N)n1 [2,4-diaminopyrimidine]",capacity to promote the formation of disulfide bridges,[1],do not have the capacity to promote the formation of disulfide bridges
Nc1cnccn1 [aminopyrazine],capacity to promote the formation of disulfide bridges,[1],do not have the capacity to promote the formation of disulfide bridges
NC(=O)c1cnccn1 [pyrazine amide],capacity to promote the formation of disulfide bridges,[1],do not have the capacity to promote the formation of disulfide bridges
